According to patent US11571411B2, “Use of a bisamide derivative of malonic acid for treating allergic and other diseases in humans and animals” (PHARMENTERPRISES ALLERGY LLC, priority 2018, dated 2023):
pIC50, pKi: −log10 of the molar value.

How the values were obtained:
[1] = system: histamine-induced nasal congestion model; assay: Histamine-induced nasal congestion model in guinea pigs, nasal administration of 1% solution; format: in vivo, guinea pig; details: for Resistance in nasal passages, AUC: 1% solution once intranasally, AUC 0-15 minutes
Method: A histamine-induced nasal congestion model in guinea pigs was performed according to the standard procedure [Slack R J1, Russell L J, Hall D A, Luttmann M A, Ford A J, Saunders K A, Hodgson S T, Connor H E, Browning C, Clark K L. Pharmacological characterization of GSK1004723, a novel, long-acting antagonist at histamine H(1) and H(3) receptors//Br J Pharmacol. 2011. V.164(6). P.1627-1641]. Guinea pigs were anesthetized, the trachea was isolated, and a cannula was inserted through it into the nasopharynx. The cannula was connected to a blood pressure sensor and artificial respirator (Ugo Basile). A 0.2% solution of histamine was inhaled for 3 minutes. The resistance to air flow in the nasal passages was assessed within 15 minutes after the end of inhalation of the histamine solution. Compound I was administered to guinea pigs once intranasally in the form of a 1% solution (10 μl/nostril) 1 hour and 4 hours before the inhalation of histamine.

[2] = system: ovalbumin-induced allergic rhinitis model; assay: Ovalbumin-induced allergic rhinitis model in guinea pigs, oral administration; format: in vivo, guinea pig; details: intragastrically; for Number of nose scratchings / Number of sneezes: within 2 hours after ovalbumin
Method: Int Immunopharmacol. 2013. V.17(1). P.18-25]. Guinea pigs (250-300 g) were immunized with 4× (on days 0, 7, 14 and 21) intraperitoneal administration of a mixture of ovalbumin (100 μg/pig) and aluminum hydroxide (5 mg/pig), diluted and suspended in saline. On day 28 of the study, an ovalbumin solution (60 mg/ml) was injected intranasally to the animals, 20 μl into each nostril. On day 35, after shaving the skin on the back, the animals were intradermally injected with an ovalbumin solution (200 μg/ml, 25 μl). […] On day 42 of the study, an ovalbumin solution (60 mg/ml, 20 μl/nostril) was administered intranasally. A group of sham-immunized animals was formed in order to control the formation of allergic inflammation: the pigs received an aluminum hydroxide solution (5 mg/pig) on days 0, 7, 14 and 21, a saline solution on days 28 and 35, and an ovalbumin solution (60 mg/ml, 20 μl/nostril) on day 42. Table 1 presents data on clinical manifestations of pathology and the number of eosinophils in the lavage fluid in guinea pigs on the allergic rhinitis experimental model after oral administration (M±m, n=10)
Compound I was administered to animals intragastrically 48, and 1 hour before intranasal administration of ovalbumin. Clinical manifestations of rhinitis were assessed within 2 hours after the last administration of ovalbumin: the numbers of sneezes and nose scratchings were counted. In addition, eosinophils were counted in the nasal lavage fluid.

[3] = system: histamine-induced nasal congestion model; assay: Histamine-induced nasal congestion model in dogs, nasal administration of 1% solution; format: in vivo, Beagle dogs; details: 1% solution intranasally
Method: A histamine-induced nasal congestion model in dogs was performed according to the standard procedure [Tiniakov R. L., Tiniakova O. P., McLeod R. L., Hey J. A., Yeates D. B. Canine model of nasal congestion and allergic rhinitis//J Appl Physiol. 2003. V.94(5). P.1821-1828]. Beagle dogs were injected to the nasal cavity with a 5% histamine solution in a volume of 250 μl/nostril. The volume of the nasal cavity of the right and left nostrils was measured using a rhinometer before and 5, 10, 15, 20, 30, 40, 50 and 60 minutes after administration of histamine. Five experiments were carried out in which Compound I was administered intranasally once in the form of a 1% solution in a volume of 50 μl at different time periods: 1) 5 minutes after the administration of histamine; 2) right before administration of histamine; 3) 3 hours before administration of histamine; 4) […] administration of histamine; and 5) 8 hours before administration of histamine.

[4] = target: T1, human histamine receptor type 3 (Homo sapiens, UniProt Q9Y5N1); assay: Effect on activity of histamine receptor type 3 (intracellular cAMP, CHO cells); format: cell-based; details: preincubation with histamine, read-out: IC50, antagonist of histamine receptor type 3
T1 construct: expressed in transfected cells; host or cells: CHO cells
T1 sequence (Q9Y5N1 whole entry): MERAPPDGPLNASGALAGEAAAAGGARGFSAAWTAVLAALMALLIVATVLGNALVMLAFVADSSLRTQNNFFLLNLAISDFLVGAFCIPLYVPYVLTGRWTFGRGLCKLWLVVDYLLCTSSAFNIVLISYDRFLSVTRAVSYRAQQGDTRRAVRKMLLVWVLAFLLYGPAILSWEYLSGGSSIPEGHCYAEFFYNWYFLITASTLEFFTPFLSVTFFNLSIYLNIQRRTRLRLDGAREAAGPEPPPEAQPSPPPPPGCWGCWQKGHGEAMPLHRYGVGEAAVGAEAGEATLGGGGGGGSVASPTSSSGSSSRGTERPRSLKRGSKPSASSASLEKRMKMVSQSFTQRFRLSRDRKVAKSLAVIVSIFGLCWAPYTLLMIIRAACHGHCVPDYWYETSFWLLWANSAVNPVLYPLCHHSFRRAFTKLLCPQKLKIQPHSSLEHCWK

[5] = target: T1, human histamine receptor type 3; assay: Binding of radiolabeled ligand [3H]Nα-methylhistamine to histamine receptor type 3; details: CHO cells, [3H]Nα-methylhistamine (1 nM)
[6] = system: ovalbumin-induced allergic rhinitis model; assay: Ovalbumin-induced allergic rhinitis model in guinea pigs, nasal administration of 1% solution; format: in vivo, guinea pig; details: for Number of eosinophils per 1 μL of lavage fluid / Number of nose scratchings / Number of sneezes: 1% solution once intranasally
Method: Int Immunopharmacol. 2013. V.17(1). P.18-25]. Guinea pigs (250-300 g) were immunized with 4× (on days 0, 7, 14 and 21) intraperitoneal administration of a mixture of ovalbumin (100 μg/pig) and aluminum hydroxide (5 mg/pig), diluted and suspended in saline. On day 28 of the study, an ovalbumin solution (60 mg/ml) was injected intranasally to the animals, 20 μl into each nostril. On day 35, after shaving the skin on the back, the animals were injected intradermally with an ovalbumin solution (200 μg/ml, 25 μl). […] On day 42 of the study, an ovalbumin solution (60 mg/ml, 20 μl/nostril) was administered intranasally. A group of sham-immunized animals was formed in order to control the formation of allergic inflammation: the pigs received an aluminum hydroxide solution (5 mg/pig) on days 0, 7, 14 and 21, a saline solution on days 28 and 35, and an ovalbumin solution (60 mg/ml, 20 μl/nostril) on day 42.
A 1% solution of Compound I was administered to the animals intranasally once 1 hour or 3 hours before intranasal administration of ovalbumin in a volume of 10 μl/nostril. Clinical manifestations of rhinitis were assessed within 2 hours after the last administration of ovalbumin: the numbers of sneezes and nose scratchings were counted. In addition, eosinophils were counted in the nasal lavage fluid.

[7] = 1 hour before the last administration of ovalbumin
[8] = 3 hours before the last administration of ovalbumin

O=C(CC(=O)NCCc1cnc[nH]1)NCCc1cnc[nH]1 [Compound I, N,N′-bis(2-(1H-imidazol-5-yl)ethyl)malonamide]
duration of the therapeutic effect ([1]; 1% solution intranasally, guinea pigs, histamine-induced nasal congestion): at least 4 hours | Resistance in nasal passages, AUC ([1]; 1 hour before histamine inhalation): 317.95 ± 24.49*& see H2O×c | Resistance in nasal passages, AUC ([1]; 3 hours before histamine inhalation): 281.75 ± 52.44*& see H2O×c | Number of eosinophils per 1 μL of lavage fluid ([2]; 0.014 mg/kg): 1300.5 ± 93.8*#& per 1 μL | Number of nose scratchings ([2]; 0.014 mg/kg): 16.1 ± 2*#& | Number of sneezes ([2]; 0.014 mg/kg): 11.6 ± 1.4*#& | Number of eosinophils per 1 μL of lavage fluid ([2]; 0.042 mg/kg): 1219.6 ± 159.4*#& per 1 μL | Number of nose scratchings ([2]; 0.042 mg/kg): 16.2 ± 2.7*& | Number of sneezes ([2]; 0.042 mg/kg): 10.5 ± 1.2*#& | Number of eosinophils per 1 μL of lavage fluid ([2]; 0.14 mg/kg): 1141.5 ± 128.5*#& per 1 μL | Number of nose scratchings ([2]; 0.14 mg/kg): 13.3 ± 1.3*& | Number of sneezes ([2]; 0.14 mg/kg): 8.3 ± 0.9*#& | Number of eosinophils per 1 μL of lavage fluid ([2]; 0.42 mg/kg): 1069.0 ± 139.4*#& per 1 μL | Number of nose scratchings ([2]; 0.42 mg/kg): 16.2 ± 2.0*#& | Number of sneezes ([2]; 0.42 mg/kg): 5.2 ± 0.6*& | Number of eosinophils per 1 μL of lavage fluid ([2]; 1.4 mg/kg): 984.1 ± 111.0*#& per 1 μL | Number of nose scratchings ([2]; 1.4 mg/kg): 14.4 ± 3.3*& | Number of sneezes ([2]; 1.4 mg/kg): 6.9 ± 0.8*#& | duration of the therapeutic effect [3]: at least 8 hours | onset time of the therapeutic effect [3]: no more than 5 minutes | pIC50 [4]: 4.70 | pKi [5]: 5.57 | duration of the therapeutic effect ([6]; 1% solution intranasally, guinea pigs, allergic rhinitis): at least 3 hours | Number of eosinophils per 1 μL of lavage fluid [6, 7]: 1416.9 ± 126.8*#& per 1 μL | Number of nose scratchings [6, 7]: 14.5 ± 4.4& | Number of sneezes [6, 7]: 3.1 ± 1.2#& | Number of eosinophils per 1 μL of lavage fluid [6, 8]: 1490.1 ± 241.0*#& per 1 μL | Number of nose scratchings [6, 8]: 10.7 ± 2.1#& | Number of sneezes [6, 8]: 3.9 ± 1.5&
